PMC10569036

Columns and labels:
[1] = shake flask on a mixture of 185; loss from the water phase only; LC-QTOF peak areas; settings: room
[2] = shake flask on a mixture of 185; loss from the water phase only; LC-Orbitrap peak areas; settings: room

SMILES | log partition 1-octanol / HPLC water, unbuffered, traces of methanol / DMSO [1] [log10] | log partition butyl acetate / HPLC water, unbuffered, traces of methanol / DMSO [1] [log10] | log partition chloroform / HPLC water, unbuffered, traces of methanol / DMSO [1] [log10] | log partition dichloromethane / HPLC water, unbuffered, traces of methanol / DMSO [1] [log10] | log partition oleylalcohol / HPLC water, unbuffered, traces of methanol / DMSO [1] [log10] | log partition toluene / HPLC water, unbuffered, traces of methanol / DMSO [1] [log10] | log partition 1-octanol / HPLC water, unbuffered, traces of methanol / DMSO [2] [log10] | log partition butyl acetate / HPLC water, unbuffered, traces of methanol / DMSO [2] [log10] | log partition chloroform / HPLC water, unbuffered, traces of methanol / DMSO [2] [log10] | log partition dichloromethane / HPLC water, unbuffered, traces of methanol / DMSO [2] [log10] | log partition oleylalcohol / HPLC water, unbuffered, traces of methanol / DMSO [2] [log10] | log partition toluene / HPLC water, unbuffered, traces of methanol / DMSO [2] [log10] | log partition cyclohexane / HPLC water, unbuffered, traces of methanol / DMSO [1] [log10] | log partition n-hexane / HPLC water, unbuffered, traces of methanol / DMSO [1] [log10] | log partition n-octane / HPLC water, unbuffered, traces of methanol / DMSO [1] [log10] | log partition n-undecane / HPLC water, unbuffered, traces of methanol / DMSO [1] [log10] | log partition cyclohexane / HPLC water, unbuffered, traces of methanol / DMSO [2] [log10] | log partition n-hexane / HPLC water, unbuffered, traces of methanol / DMSO [2] [log10] | log partition n-octane / HPLC water, unbuffered, traces of methanol / DMSO [2] [log10] | log partition n-undecane / HPLC water, unbuffered, traces of methanol / DMSO [2] [log10]
NC(=O)Nc1ccc(Cl)cc1 | 1.214 | 0.7995 | -0.1363 | -0.2421 | 1.051 | -0.9053 | 0.591 | 0.6709 | -0.4936 | -0.3897 | 0.6552 | -1.194 | – | – | – | – | – | – | – | –
CCOc1ccc2[nH]cc(C(=O)NCc3ccccc3)c(=O)c2n1 | 2.233 | 1.386 | 2.411 | 1.249 | 2.032 | -0.4984 | 3.526 | 2.502 | 1.196 | 1.153 | 2.478 | -0.2525 | -1.713 | -1.238 | -1.123 | -1.345 | -1.221 | -1.633 | -1.139 | -1.372
Nc1cc2c3c(c1)C(c1ccccc1)=N[C@@H](NC(=O)c1cccnc1)C(=O)N3CC2 | 1.4 | 1.224 | 1.953 | 2.001 | 1.111 | 0.4515 | 1.8 | 1.849 | 1.811 | 1.949 | 1.341 | 0.4674 | -0.8456 | -0.527 | -1.018 | -1.615 | -0.6201 | -0.5688 | -0.5885 | -0.7259
Cn1cnc([N+](=O)[O-])c1Sc1ncnc2nc[nH]c12 | 0.004535 | -0.2382 | -0.4745 | -0.366 | -0.3513 | -1.048 | 0.3085 | 0.621 | 0.1897 | 0.2139 | 0.1703 | -0.3549 | -1.86 | -1.66 | -2.343 | -2.232 | -1.394 | -1.636 | -1.543 | -1.518
OCCN(CCO)c1ccccc1 | 0.7171 | 0.3605 | -0.02211 | 0.1152 | 0.6347 | -1.086 | 0.493 | 0.5439 | 0.2882 | 0.4782 | 0.1818 | -0.4224 | -1.946 | -1.82 | -2.014 | -1.783 | -0.9006 | -1.209 | -0.9336 | -1.048
CO/C=C(/C(=O)OC)c1ccccc1Oc1cc(Oc2ccccc2C#N)ncn1 | 2.62 | 3.136 | 2.817 | 2.944 | 2.323 | 2.329 | – | – | – | – | – | – | 1.291 | 0.8262 | 0.8047 | 0.5559 | – | – | – | –
O=S(=O)(O)C(F)(F)F | -1.49 | -1.234 | 1.635 | 1.509 | -1.56 | -0.8212 | – | – | – | – | – | – | -0.7044 | -0.8208 | -0.9229 | -0.955 | – | – | – | –
Oc1c(Cl)cc(Cl)cc1Sc1cc(Cl)cc(Cl)c1O | 0.7477 | 1.778 | 1.227 | 1.541 | 1.386 | 1.7 | – | – | – | – | – | – | 1.174 | 1.101 | 1.178 | 0.844 | – | – | – | –
